Results: patent US8257739B2, “Pharmaceutical compositions of semi-ordered drugs and polymers” (Bend Research, Inc., priority 2002, dated 2012)

Legend:
[1] = In vitro dissolution test of Drug 1 compositions in MFDS solution (concentration enhancement); type: physicochemical; conditions: for AUC90 / Cmax9O: Drug 1, MFDS pH 6.5, 37° C., first 90 min; for AUC / Drug 1 Concentration: MFDS pH 6.5, 37° C.
Excerpt: In conducting such a dissolution test, the amount of test composition used is an amount such that if all of the drug dissolved, the drug concentration would be at least 2-fold to 100-fold or more than that of the equilibrium concentration of the drug. The concentration of dissolved drug is typically measured as a function of time by sampling the test medium and plotting drug concentration in the test medium vs. time so that the MDC and/or AUC can be ascertained.
To avoid drug particulates greater than about 0.4 to 1.0 μm in size being present in the solution assayed, which would give an erroneous determination, the test solution is either filtered or centrifuged. “Dissolved drug” is typically taken as that material that either passes a 0.45 μm syringe filter or, alternatively, the material that remains in the supernatant following centrifugation. Filtration can be conducted using a 13 mm, 0.45 μm polyvinylidine difluoride syringe filter sold by Scientific Resources under the trademark TITAN®. Centrifugation is typically carried out in a polypropylene microcentrifuge tube by centrifuging at 13,000 G for 60 seconds. Other similar filtration or centrifugation methods can be employed and useful results obtained. For example, using other types of microfilters may yield values somewhat higher or lower (by about 10-40%) than that obtained with the filter specified above but will still allow identification of preferred compositions. It is recognized that this definition of “dissolved drug” encompasses not only monomeric solvated drug molecules but also a wide range of species such as polymer/drug assemblies that have submicron dimensions such as drug aggregates, aggregates of mixtures of polymer and drug, micelles, polymeric micelles, colloidal particles or nanocrystals, polymer/drug complexes, and other such drug-containing species that are present in the filtrate or supernatant in the specified dissolution test.
For these tests, samples containing 0.72 mg of Example 1B, 0.36 mg of either Control 1C or 1D, or 0.72 mg of Control 1E were separately added to microcentrifuge tubes. The tubes were placed in a 37° C. temperature-controlled chamber, and 1.8 mL MFDS solution at pH 6.5 was added. The contents of the tubes were quickly mixed using a vortex mixer for about 60 seconds. The tubes were then centrifuged at 13,000 G at 37° C. for 1 minute. The supernatant was sampled and diluted 1:6 (by volume) with methanol and then analyzed by high-performance liquid chromatography (HPLC). Drug 1 was analyzed by HPLC using a Waters Symmetry C18 column. The mobile phase consisted of 0.3 vol % glacial acetic acid, 0.2 vol % triethylamine in HPLC water/acetonitrile in a volume ratio of 50/50. Drug concentration was calculated by comparing UV absorbance at 260 nm to the absorbance of Drug 1 standards.
The contents of the tubes were then again mixed on the vortex mixer and allowed to stand undisturbed at 37° C. until the next sample was taken. Samples of the tubes were collected at 4, 10, 20, 40, 90, and 1200 minutes.

[2] = In vivo test of Drug 1 compositions, oral powder for constitution, plasma Drug 1; conditions: male beagle dogs, oral gavage, 10 mgA/kg Drug 1, plasma
Procedure: The composition of Example 1B was used as an oral powder for constitution (OPC) for evaluating the performance of the composition in in vivo tests using male beagle dogs. The OPC was dosed as a suspension in a solution containing 0.5 wt % Methocel® (Dow Chemical Co.), and was prepared as follows. First, 5.0130 g of Methocel® was weighed out and added slowly to approximately 200 ml of water at 60° C. to form a Methocel® suspension. After all the Methocel® was added, the suspension was placed in a beaker of ice water. Next, 800 ml of chilled water was added with stirring. A 702.7 mg sample of Example 1B was weighed into a mortar. A drop of the Methocel® suspension was added to the mortar and the drug mixture was ground with a pestle. Additional Methocel® suspension was added gradually with grinding until a pourable suspension was obtained. The suspension was then transferred to a vial. The mortar and pestle were washed with the remaining Methocel® suspension. A total of 350 ml of Methocel® suspension was added to the Example 1B sample.
Six male beagle dogs were dosed with samples of Example 1B. Sufficient amounts of the OPC were dosed such that each dog received 10 mgA/kg of Drug 1 (where “A” refers to active drug). The dogs were fed 1 can of liquid diet the day prior to the study. On the day of the study, the dogs were dosed with the OPC using a gavage tube and a syringe. Whole blood samples of 6 ml were taken from the jugular vein using a plasma vacutainer containing sodium heparin with a 20 gauge needle at 0, ½, 1, 2, 3, 4, 6, 8, and 24 hours post dosing. Samples were spun in a refrigerated (5° C.) centrifuge at 3000 rpm for 5 minutes. The resultant plasma samples were poured into 2 ml cryogenic plastic tubes and stored in a freezer (−20° C.) within ½ hour post sampling time. Samples were then analyzed for Drug 1 using an HPLC method.
A similar method was used to dose the dogs with samples of Control 1B, Control 1C, and Control 1D. A washout period of at least 1 week was used between dosing of the various compositions.

[3] = In vitro dissolution test of Drug 2 compositions in MFDS solution (concentration enhancement); type: physicochemical; conditions: 37° C.; for AUC / Drug 2 Concentration: MFDS
Procedure: The concentration-enhancement provided by Example 2, Control 2B and Control 2C was determined using an in vitro dissolution test as follows. Samples containing 3.91 mg of Example 2, 0.36 mg of Control 2B, or 3.9 mg of Control 2C, were separately added to microcentrifuge tubes. The tubes were placed in a 37° C. temperature-controlled chamber, and 1.8 mL MFDS solution was added. The contents of the tubes were quickly mixed using a vortex mixer for about 60 seconds. The tubes were then centrifuged at 13,000 G at 37° C. for 1 minute. The supernatant was sampled and diluted 1:6 (by volume) with methanol and then analyzed by high-performance liquid chromatography (HPLC). Drug 2 was analyzed by HPLC using a Phenomenex ODS 20 column (250 mm×4.6mm). The mobile phase consisted of 0.02 M KH2PO4 (pH 3)/acetonitrile in a volume ratio of 60/40. Drug concentration was calculated by comparing UV absorbance at 254 nm to the absorbance of Drug 2 standards. The contents of the tubes were then again mixed on the vortex mixer and the next sample was taken. […]

[4] = In vivo test of Drug 2 compositions, gelatin capsule, plasma Drug 2; conditions: fasted male beagle dogs, one gelatin capsule, 40 mg Drug 2, plasma
Procedure: The composition of Example 2 was placed in a gelatin capsule such that the capsule contained 40 mg of Drug 2. Five fasted male beagle dogs were dosed with one capsule and whole blood samples of 6 ml were taken from the jugular vein using a plasma vacutainer containing sodium heparin with a 20 gauge needle at 0, ½, 1, 1½, 2, 3, 4, 6, 8, 12, and 24 hours post dosing. Samples were spun in a refrigerated (5° C.) centrifuge at 3000 rpm for 5 minutes. Resultant plasma samples were poured into 2 ml cryogenic plastic tubes and were stored in a freezer (−20° C.) within ½ hour post sampling time. Similar tests were performed with a gelatin capsule containing 40 mg of crystalline Drug 2 (Control 2B).

| AUC90 [1] [µg·min/mL] | Cmax9O [1] [ng/mL] | AUC ([1]; time 0 min) [µg·min/mL] | Drug 1 Concentration ([1]; time 0 min) [µg/mL] | AUC ([1]; time 4 min) [µg·min/mL] | Drug 1 Concentration ([1]; time 4 min) [µg/mL] | AUC ([1]; time 10 min) [µg·min/mL] | Drug 1 Concentration ([1]; time 10 min) [µg/mL] | AUC ([1]; time 20 min) | Drug 1 Concentration ([1]; time 20 min) [µg/mL] | AUC ([1]; time 40 min) | Drug 1 Concentration ([1]; time 40 min) [µg/mL] | AUC ([1]; time 90 min) | Drug 1 Concentration ([1]; time 90 min) [µg/mL] | AUC ([1]; time 1200 min) | Drug 1 Concentration ([1]; time 1200 min) [µg/mL] | Cmax [2] | other results | Compound |
| --- | --- | --- | --- | --- | --- | --- | --- | --- | --- | --- | --- | --- | --- | --- | --- | --- | --- | --- |
| 5600 | 70000 | 0 | 0 | 100 | 50 | 400 | 58 | 1,000 min*μg/mL | 61 | 2,300 min*μg/mL | 64 | 5,600 min*μg/mL | 70 | 77,800 min*μg/mL | 60 | 3,622 ng/ml | AUC(0-inf) [2]: 20,700 ng/ml * hr | NC(=O)N(O)C1C=C(c2cccc(Oc3ccc(F)cc3)c2)CC1 (single isomer, unassigned; (+)) [Control 1D, (+)-N-{3-[3-(4-fluorophenoxy)phenyl]-2-cyclopenten-1-yl}-N-hydroxyurea] |
| 2200 | 32000 | 0 | 0 | 0 | 9 | 100 | 15 | 300 µg·min/mL | 21 | 800 µg·min/mL | 27 | 2,200 min*μg/mL | 32 | 43,300 min*μg/mL | 42 | 1,650 ng/ml | AUC(0-inf) ([2]; male, beagle, dog, plasma, po, 10 mgA/kg, read-out: AUC(0-inf)): 11100 ng·h/mL | NC(=O)N(O)C1C=C(c2cccc(Oc3ccc(F)cc3)c2)CC1 (single isomer, unassigned; (+)) [Control 1C, (+)-N-{3-[3-(4-fluorophenoxy)phenyl]-2-cyclopenten-1-yl}-N-hydroxyurea] |
| – | – | – | – | – | – | – | – | – | – | – | – | – | – | – | – | – | AUC90 ([3]; Drug 2, MFDS, first 90 min): 1,600 min * μg/mL; Cmax90 ([3]; Drug 2, MFDS, first 90 min): 23000 ng/mL; AUC ([3]; time 4 min): 0 µg·min/mL; Drug 2 Concentration ([3]; time 4 min): 14 µg/mL; AUC ([3]; time 10 min): 100 µg·min/mL; Drug 2 Concentration ([3]; time 10 min): 17 µg/mL; AUC ([3]; time 20 min): 300 µg·min/mL; Drug 2 Concentration ([3]; time 20 min): 23 µg/mL; AUC ([3]; time 40 min): 700 µg·min/mL; Drug 2 Concentration ([3]; time 40 min): 19 µg/mL; AUC ([3]; time 90 min): 1,600 min*μg/mL; Drug 2 Concentration ([3]; time 90 min): 15 µg/mL; AUC ([3]; time 1200 min): 14,900 min*μg/mL; Drug 2 Concentration ([3]; time 1200 min): 9 µg/mL; AUC(0-inf) [4]: 1050 ng·h/mL; Cmax [4]: 196 ng/mL | O=C1Cc2cc(CCN3CCN(c4nsc5ccccc45)CC3)c(Cl)cc2N1 [Control 2B] |
